This experiment deals with T1, human NaV1.8 (Homo sapiens, UniProt Q9Y5Y9).
T1 construct: The following NaV1.8 recombinant cell line was used for recordings: HEK-NaV1.8 (NM 006514.1); expressed in transfected cells; host or cells: HEK (recombinant cell line HEK-NaV1.8)
In words: Electrophysiology: automated whole-cell voltage-clamp (patch clamp, Qube384) recordings of sodium currents in HEK-NaV1.8 cells. Particulars: potency data either taken from inactivated or resting state, read-out: Potency category (human NaV1.8 IC50). The format is cell-based. A digest of the protocol: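 Automated whole-cell patch clamp at room temperature on HEK cells expressing human NaV1.8, with 0.3% DMSO vehicle controls. State-dependent protocol from −120 mV tested resting (P1) and half-inactivated (P2, 4 s at V1/2) channels, plus 40-pulse trains at 10 and 20 Hz. Values after ~12 min compound exposure were normalised to baseline and corrected for vehicle run-down; IC50 from a 4-parameter logistic fit, taken from inactivated or resting state.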
On the technique in general: The patch-clamp technique gives a direct electrical read-out from membranes.

Data on 35 compounds can be found in patent US11999699B2, “Substituted pyrazole amides” (GRUENENTHAL GMBH, priority 2021, dated 2024).

Molecules are shown by their SMILES.

In general, IC50 refers to the concentration that gives 50% inhibition.

T1 sequence (Q9Y5Y9 whole entry): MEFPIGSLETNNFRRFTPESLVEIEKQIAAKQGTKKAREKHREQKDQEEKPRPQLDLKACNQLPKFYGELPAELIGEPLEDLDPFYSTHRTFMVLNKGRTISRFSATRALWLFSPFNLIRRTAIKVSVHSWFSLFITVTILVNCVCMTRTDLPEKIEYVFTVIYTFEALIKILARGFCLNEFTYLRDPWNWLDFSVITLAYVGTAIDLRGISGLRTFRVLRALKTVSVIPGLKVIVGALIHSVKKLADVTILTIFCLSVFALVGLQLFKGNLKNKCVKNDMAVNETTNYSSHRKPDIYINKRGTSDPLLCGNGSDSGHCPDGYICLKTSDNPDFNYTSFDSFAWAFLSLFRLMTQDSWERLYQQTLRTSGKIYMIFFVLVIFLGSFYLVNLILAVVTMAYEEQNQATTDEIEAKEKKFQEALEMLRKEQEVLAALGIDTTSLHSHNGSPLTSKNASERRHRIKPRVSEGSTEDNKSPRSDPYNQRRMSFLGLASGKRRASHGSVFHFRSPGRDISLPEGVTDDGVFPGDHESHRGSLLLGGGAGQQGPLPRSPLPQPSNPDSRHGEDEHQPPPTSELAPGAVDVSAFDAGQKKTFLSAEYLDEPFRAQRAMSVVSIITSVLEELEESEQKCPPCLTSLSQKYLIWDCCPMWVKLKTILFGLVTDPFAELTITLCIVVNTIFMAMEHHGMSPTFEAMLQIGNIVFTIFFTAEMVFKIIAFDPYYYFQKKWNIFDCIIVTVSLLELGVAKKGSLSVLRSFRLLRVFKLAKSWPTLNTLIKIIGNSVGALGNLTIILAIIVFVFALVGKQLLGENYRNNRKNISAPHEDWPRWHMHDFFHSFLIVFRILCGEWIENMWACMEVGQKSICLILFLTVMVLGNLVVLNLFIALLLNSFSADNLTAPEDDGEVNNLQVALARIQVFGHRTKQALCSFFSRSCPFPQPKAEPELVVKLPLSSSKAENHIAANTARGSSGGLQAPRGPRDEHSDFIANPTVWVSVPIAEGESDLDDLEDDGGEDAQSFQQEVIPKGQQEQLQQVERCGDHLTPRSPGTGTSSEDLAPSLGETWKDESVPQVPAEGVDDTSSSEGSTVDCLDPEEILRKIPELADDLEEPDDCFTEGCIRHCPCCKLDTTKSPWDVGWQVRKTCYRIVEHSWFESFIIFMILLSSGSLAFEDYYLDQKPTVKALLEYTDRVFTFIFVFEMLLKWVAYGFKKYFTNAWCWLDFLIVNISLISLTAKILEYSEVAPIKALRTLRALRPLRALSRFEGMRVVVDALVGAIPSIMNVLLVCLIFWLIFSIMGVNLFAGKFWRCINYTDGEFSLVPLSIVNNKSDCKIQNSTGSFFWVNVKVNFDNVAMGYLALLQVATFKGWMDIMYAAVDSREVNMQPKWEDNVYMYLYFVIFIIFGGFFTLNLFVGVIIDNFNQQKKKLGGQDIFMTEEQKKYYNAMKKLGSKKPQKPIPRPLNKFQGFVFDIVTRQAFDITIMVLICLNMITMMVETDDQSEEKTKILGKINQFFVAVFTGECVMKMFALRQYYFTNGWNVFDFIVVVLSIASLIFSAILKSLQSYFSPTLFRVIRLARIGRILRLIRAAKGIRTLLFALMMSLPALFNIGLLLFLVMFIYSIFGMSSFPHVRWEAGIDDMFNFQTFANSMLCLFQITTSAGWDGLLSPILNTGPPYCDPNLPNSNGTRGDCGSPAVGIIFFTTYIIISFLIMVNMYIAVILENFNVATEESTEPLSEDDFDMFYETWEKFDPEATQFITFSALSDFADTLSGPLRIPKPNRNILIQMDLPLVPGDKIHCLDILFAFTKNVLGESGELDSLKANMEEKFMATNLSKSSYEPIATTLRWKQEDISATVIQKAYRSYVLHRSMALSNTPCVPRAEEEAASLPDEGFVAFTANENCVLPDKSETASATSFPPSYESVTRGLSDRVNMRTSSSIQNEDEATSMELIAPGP
T1 sequence (Q9NY72 23-215 partner): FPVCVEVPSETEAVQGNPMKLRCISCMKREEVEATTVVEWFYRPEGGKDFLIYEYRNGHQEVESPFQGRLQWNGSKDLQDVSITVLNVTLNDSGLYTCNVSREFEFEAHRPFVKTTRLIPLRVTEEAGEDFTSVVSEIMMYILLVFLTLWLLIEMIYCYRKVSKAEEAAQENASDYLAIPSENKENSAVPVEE

Consider `NC(=O)c1cc(NC(=O)c2c(C(F)(F)F)cnn2CC2CCCCC2)ccc1F` [SC-35, N-(3-carbamoyl-4-fluorophenyl)-1-(cyclohexylmethyl)-4-(trifluoromethyl)-1H-pyrazole-5-carboxamide], for which the IC50 was no more than 0.1 µM.
The same measure for `CS(=O)(=O)n1cc(NC(=O)c2c(C(F)(F)F)cnn2CC2CCCCC2)cn1` [SC-36, 2-(cyclohexylmethyl)-N-(1-methylsulfonylpyrazol-4-yl)-4-(trifluoromethyl)pyrazole-3-carboxamide]: 0.1 to 1 µM; for `Cc1cnn(CC2CCCCC2)c1C(=O)Nc1cccc(S(C)(=O)=O)c1` [SC-37, 2-(cyclohexylmethyl)-4-methyl-N-(3-methylsulfonylphenyl)pyrazole-3-carboxamide]: 1 to 10 µM.
The same measure for `CS(=O)(=O)c1cccc(NC(=O)c2cc(C#N)nn2CC2CCCCC2)c1` [SC-38, 5-cyano-2-(cyclohexylmethyl)-N-(3-methylsulfonylphenyl)pyrazole-3-carboxamide]: 0.1 to 1 µM; for `NC(=O)c1cc(NC(=O)c2c(C(F)(F)F)cnn2CC2CCC(F)(F)CC2)ccc1F` [SC-39, N-(3-carbamoyl-4-fluorophenyl)-2-[(4,4-difluorocyclohexyl)methyl]-4-(trifluoromethyl)pyrazole-3-carboxamide]: 0.1 to 1 µM; for `NC(=O)c1cccc(NC(=O)c2c(C(F)(F)F)cnn2CC2CCC(F)(F)CC2)c1` [SC-41, N-(3-carbamoylphenyl)-2-[(4,4-difluorocyclohexyl)methyl]-4-(trifluoromethyl)pyrazole-3-carboxamide]: 0.1 to 1 µM.
The same measure for `CS(=O)(=O)c1cc(F)cc(NC(=O)c2c(C(F)(F)F)cnn2CC2CCC(F)(F)CC2)c1` [SC-42, 2-[(4,4-difluorocyclohexyl)methyl]-N-(3-fluoro-5-methylsulfonylphenyl)-4-(trifluoromethyl)pyrazole-3-carboxamide]: 1 to 10 µM; for `NS(=O)(=O)c1cccc(NC(=O)c2c(C(F)(F)F)cnn2CC2CCC(F)(F)CC2)c1` [SC-43, 2-[(4,4-difluorocyclohexyl)methyl]-N-(3-sulfamoylphenyl)-4-(trifluoromethyl)pyrazole-3-carboxamide]: 0.1 to 1 µM.
Turning to `Cc1nn(CC2CCC(F)(F)CC2)c(C(=O)Nc2cccc(S(C)(=O)=O)c2)c1C` [SC-44, 2-[(4,4-difluorocyclohexyl)methyl]-4,5-dimethyl-N-(3-methylsulfonylphenyl)pyrazole-3-carboxamide], the IC50 was in the range of 0.1 to 1 µM.
Next, `Cc1nn(CC2CCOCC2)c(C(=O)Nc2cccc(S(N)(=O)=O)c2)c1C` [SC-45, 3,4-dimethyl-N-(3-sulfamoylphenyl)-1-((tetrahydro-2H-pyran-4-yl)methyl)-1H-pyrazole-5-carboxamide]: 1 to 10 µM; `CS(=O)(=O)n1cc(NC(=O)c2c(C(F)(F)F)cnn2CC2CCCCC2)c2cccnc21` [SC-53, 1-(cyclohexylmethyl)-N-(1-(methylsulfonyl)-1H-pyrrolo[2,3-b]pyridin-3-yl)-4-(trifluoromethyl)-1H-pyrazole-5-carboxamide]: no more than 0.1 µM.
The same measure for `Cc1nn(CC2CCC(F)(F)CC2)c(C(=O)Nc2ccnc(C(N)=O)c2)c1C(F)(F)F` [SC-84, 4-(1-((4,4-difluorocyclohexyl)methyl)-3-methyl-4-(trifluoromethyl)-1H-pyrazole-5-carboxamido)picolinamide]: no more than 0.1 µM; for `CC1CC(Cn2nc(C3CC3)c(C(F)(F)F)c2C(=O)Nc2ccnc(C(N)=O)c2)CCO1` (centres unmarked) [SC-135, 4-(3-cyclopropyl-1-((2-methyltetraliydro-2H-pyran-4-yl)methyl)-4-(trifluoromethyl)-1H-pyrazole-5-carboxamido)picolinamide]: no more than 0.1 µM.
Next, `NC(=O)c1cc(NC(=O)c2c(C(F)(F)F)c(C3CC3)nn2CC2CCCCO2)ccc1F` (centres unmarked) [SC-140, N-(3-carbamoyl-4-fluorophenyl)-3-cyclopropyl-1-((tetrahydro-2H-pyran-2-yl)methyl)-4-(trifluoromethyl)-1H-pyrazole-5-carboxamide]: no more than 0.1 µM; `NC(=O)c1cc(NC(=O)c2c(C(F)(F)F)c(C(F)F)nn2CC2CC(F)(F)C2)ccc1F` [SC-141, N-(3-carbamoyl-4-fluorophenyl)-1-((3,3-difluorocyclobutyl)methyl)-3-(difluoromethyl)-4-(trifluoromethyl)-1H-pyrazole-5-carboxamide]: no more than 0.1 µM.
With `CC1CCCC(Cn2nc(C3CC3)c(C(F)(F)F)c2C(=O)Nc2ccnc(C(N)=O)c2)O1` (centres unmarked) [SC-143, 4-(3-cyclopropyl-1-((6-methyltetrahydro-2H-pyran-2-yl)methyl)-4-(trifluoromethyl)-1H-pyrazole-5-carboxamido)picolinamide], the IC50 was no more than 0.1 µM.
With `NC(=O)c1cc(NC(=O)c2c(C(F)(F)F)c(C3CC3)nn2CC2CC(F)(F)C2)ccn1` [SC-144, 4-(3-cyclopropyl-1-((3,3-difluorocyclobutyl)methyl)-4-(trifluoromethyl)-1H-pyrazole-5-carboxamido)picolinamide], the IC50 is no more than 0.1 µM.
Regarding `CS(=O)(=O)c1cc(NC(=O)c2c(C(F)(F)F)c(C3CC3)nn2CC2CC(F)(F)C2)ccn1` [SC-151, 3-cyclopropyl-1-((3,3-difluorocyclobutyl)methyl)-N-(2-(methylsulfonyl)pyridin-4-yl)-4-(trifluoromethyl)-1H-pyrazole-5-carboxamide], the IC50 is no more than 0.1 µM.
The same measure for `CS(=O)(=O)c1cc(NC(=O)c2c(C(F)F)c(C3CC3)nn2CC2CCOCC2)ccn1` [SC-153, 3-cyclopropyl-4-(difluoromethyl)-N-(2-(methylsulfonyl)pyridin-4-yl)-1-((tetrahydro-2H-pyran-4-yl)methyl)-1H-pyrazole-5-carboxamide]: no more than 0.1 µM.
In the case of `CC(C)Oc1nn(CC2CCC(F)(F)C2)c(C(=O)Nc2ccnc(C(N)=O)c2)c1C(F)(F)F` (centres unmarked) [SC-155, 4-(1-((3,3-difluorocyclopentyl)methyl)-3-isopropoxy-4-(trifluoromethyl)-1H-pyrazole-5-carboxamido)picolinamide], the IC50 was no more than 0.1 µM.
For `CCOc1nn(CC2CCC(F)(F)C2)c(C(=O)Nc2ccnc(C(N)=O)c2)c1C(F)(F)F` (centres unmarked) [SC-156, 4-(1-((3,3-difluorocyclopentyl)methyl)-3-ethoxy-4-(trifluoromethyl)-1H-pyrazole-5-carboxamido)picolinamide], the IC50 was no more than 0.1 µM.
As to `NC(=O)c1cc(NC(=O)c2c(C(F)(F)F)c(OC(F)F)nn2C[C@@H]2CCC(F)(F)C2)ccn1` [SC-158R], the IC50 was no more than 0.1 µM.
Next, `NC(=O)c1cc(NC(=O)c2c(C(F)(F)F)c(OC(F)F)nn2C[C@H]2CCC(F)(F)C2)ccn1` [SC-158S]: no more than 0.1 µM; `NC(=O)c1cc(NC(=O)c2c(C(F)(F)F)c(C3CC3)nn2CC2CCC2)ccn1` [SC-159, 4-(1-(cyclobutylmethyl)-3-cyclopropyl-4-(trifluoromethyl)-1H-pyrazole-5-carboxamido)picolinamide]: no more than 0.1 µM; `Cc1c(C(C)(F)F)nn(CC2CC(F)(F)C2)c1C(=O)Nc1ccnc(C(N)=O)c1` [SC-161, 4-(1-((3,3-difluorocyclobutyl)methyl)-3-(1,1-difluoroethyl)-4-methyl-1H-pyrazole-5-carboxamido)picolinamide]: no more than 0.1 µM.
The same measure for `Cc1c(C(F)F)nn(CC2CCC(F)(F)CC2)c1C(=O)Nc1ccnc(C(N)=O)c1` [SC-163, 4-(1-((4,4-difluorocyclohexyl)methyl)-3-(difluoromethyl)-4-methyl-1H-pyrazole-5-carboxamido)picolinamide]: no more than 0.1 µM.
Take `Cc1c(C(C)(F)F)nn(CC2CCC(F)(F)C2)c1C(=O)Nc1ccnc(C(N)=O)c1` (centres unmarked) [SC-167, 4-(1-((3,3-difluorocyclopentyl)methyl)-3-(1,1-difluoroethyl)-4-methyl-1H-pyrazole-5-carboxamido)picolinamide]: the IC50 was no more than 0.1 µM.
Regarding `CC(C)c1nn(CC2CC(F)(F)C2)c(C(=O)Nc2ccnc(C(N)=O)c2)c1C(F)(F)F` [SC-170, 4-(1-((3,3-difluorocyclobutyl)methyl)-3-isopropyl-4-(trifluoromethyl)-1H-pyrazole-5-carboxamido)picolinamide], the IC50 was no more than 0.1 µM.
As for `CCc1nn(CC2CC(F)(F)C2)c(C(=O)Nc2ccnc(C(N)=O)c2)c1C(F)(F)F` [SC-172, 4-(1-((3,3-difluorocyclobutyl)methyl)-3-ethyl-4-(trifluoromethyl)-1H-pyrazole-5-carboxamido)picolinamide], the IC50 is no more than 0.1 µM.
On to `CC(F)(F)c1nn(CC2CC(F)(F)C2)c(C(=O)Nc2ccnc(C(N)=O)c2)c1C(F)(F)F` [SC-180, 4-(1-((3,3-difluorocyclobutyl)methyl)-3-(1,1-difluoroethyl)-4-(trifluoromethyl)-1H-pyrazole-5-carboxamido)picolinamide], for which the IC50 is no more than 0.1 µM.
The same measure for `Cc1c([C@@H](C)C(F)(F)F)nn(CC2CC(F)(F)C2)c1C(=O)Nc1ccnc(C(N)=O)c1` [SC-188a]: 0.1 to 1 µM.
Next, `Cc1c([C@H](C)C(F)(F)F)nn(CC2CC(F)(F)C2)c1C(=O)Nc1ccnc(C(N)=O)c1` [SC-188b]: 0.1 to 1 µM; `Cc1c([C@@H](C)C(F)F)nn(CC2CC(F)(F)C2)c1C(=O)Nc1ccnc(C(N)=O)c1` [SC-192a]: 0.1 to 1 µM.
Next, `Cc1c([C@H](C)C(F)F)nn(CC2CC(F)(F)C2)c1C(=O)Nc1ccnc(C(N)=O)c1` [SC-192b]: 0.1 to 1 µM; `Cc1c(OC(F)F)nn(CC2CCC(F)(F)C2)c1C(=O)Nc1ccnc(C(N)=O)c1` (centres unmarked) [SC-196, 4-(1-((3,3-difluorocyclopentyl)methyl)-3-(difluoromethoxy)-4-methyl-1H-pyrazole-5-carboxamido)picolinamide]: no more than 0.1 µM.
